What all share (experiment): growth of human tumour cells (NCI), 48 h
In assay [1] the test system is A549 NSCLC.
Assay [2] deals with CCRF-CEM leukemia.
Assay [3] relates to HOP-62 NSCLC.
The subject of assay [4] is HT29 colon.
In assay [5] the test system is IGROV1 ovarian.
Assay [6] has as its system NCI-H522 lung.
The test system of assay [7] is OVCAR-5 ovarian.
Assay [8] deals with SR leukemia.
Assay [9] relates to ACHN renal.
Assay [10] has as its system OVCAR-8 ovarian.
In assay [11] the test system is RXF 393 renal.

SMILES strings stand for the structures.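 Results reflect a 48-hour exposure of cells in 96-well plates to compound at five concentrations. Abbreviation: GI50, concentration required for 50% inhibition of growth. TGI: total growth inhibition.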

Consider `COC(C/C=C\C=C\CC/C=C/CC(C)/C=C/C(=C\C(=O)O)CC(=O)O)/C(C)=C\C=C(/C)C(=O)O` (centres undefined), for which the TGI in [1], in assay [2], in assay [3], in assay [4], in [5] and in [6] was above 100 µM in each case. Moreover, the TGI in assay [7] and in assay [8] was above 100 µM throughout.

In the case of `CCOC(=O)/C(C1=N[C@H](C(=O)OCC)CS1)=C(\O)c1ccccc1`, the TGI in [1], in [9], in assay [2], in [3], in assay [4] and in assay [5] was above 100 µM in each case. The TGI in assay [6], in assay [7], in assay [10], in assay [11] and in assay [8] was above 100 µM throughout.

For the compound `NNc1nnc(-c2ccccc2)nc1Cc1ccccc1`, the TGI in [1] is above 100 µM; in [9], above 100 µM; in [2], above 100 µM; in assay [3], 9.45 µM; in [4] it was above 100 µM; in assay [5], above 100 µM. Also, the TGI in assay [6] is above 100 µM; in [7] it was above 100 µM; in [10], 39.1 µM; in assay [11], above 100 µM; in assay [8], above 100 µM.

Take `Cn1cnc(/C=C/C#N)c1`: the TGI in assay [1], in [9], in assay [2], in assay [3], in assay [4] and in assay [5] was above 100 µM throughout. Further, the TGI in assay [6], in assay [7], in assay [10], in assay [11] and in [8] was above 100 µM throughout.

Regarding `COc1ccc(-c2cc(-c3ccc(OC)c(OC)c3)nc(SCCCC(=O)NO)n2)cc1`, the GI50 in [9] is 0.456 µM; in assay [2], 1.36 µM; in assay [3], 1.47 µM; in assay [4], 1.87 µM; in assay [6], 0.787 µM; in assay [7], 1.53 µM. Besides, the GI50 was 0.782 µM in assay [10], 0.587 µM in assay [11] and 0.552 µM in [8]. Also, the TGI in assay [9] was 2.29 µM; in [2] it was above 100 µM; in assay [3], 6.47 µM; in assay [4] it was above 100 µM; in assay [6], 5.09 µM; in [7], 6.25 µM. Also, the TGI in [10] was above 100 µM; in [11] it was 2.5 µM; in [8], 15.5 µM.

For the compound `Cc1cc(=O)[nH]c(NN2C(Cl)C(=O)C2c2ccco2)n1` (centres undefined), the TGI is above 100 µM in [1]; above 100 µM in [9]; 45.6 µM in assay [2]; above 100 µM in assay [3]; above 100 µM in [4]; above 100 µM in [5]. Moreover, the TGI in [7], in [10], in assay [11] and in assay [8] was above 100 µM throughout.

In the case of `CCOC(=O)NC(OCc1ccccc1)(C(=O)OC)C(F)(F)F` (centres undefined), the TGI in assay [1], in assay [9], in assay [2], in [4], in [5] and in assay [6] was above 100 µM each time. The TGI in assay [7], in assay [10], in [11] and in assay [8] was above 100 µM throughout.

The record behind these values is PubChem BioAssay (NCI).
